Laboratory results published in patent US20120035161A1, “Novel Compositions and Methods of Treating Diseases Using the Same” (CORRIDOR PHARMACEUTICALS, INC., priority 2006, published 2012).

Key:
[1] = test system: Aspergillus fumigatus-based mouse asthma model; assay: Aspergillus fumigatus-based mouse asthma model, lung resistance; type: in vivo; details: 20 mg/ml, intraperitoneally
Experimental: Compounds of the invention were also tested for efficiacy in an asthma model.
A cohort of mice was administered intraperitoneal injections of Aspergillus fumigatus on days 0, 14, 26, 27, and 28. Lung resistance was tested on day 29 immediately following a tracheotomy/methacholine procedure. Animals receiving dexamethasone were administered dexamethasone on days 26, 27 and 28. Animals receiving a compound of the invention were administered the compound just hours before the lung resistance test. As a control, all test compounds, as well as dexamethasone, were also administered to mice in the absence of an A. fumigatus insult.

[2] = target: T1, Serotonin (5-Hydroxytryptamine) 5-HT1A (Homo sapiens, UniProt P08908); assay: Radioligand binding, 5-HT1A ([3H] 8-OH-DPAT)
T1 construct: expressed in transfected cells; host or cells: CHO cells
T1 sequence (P08908 1-422): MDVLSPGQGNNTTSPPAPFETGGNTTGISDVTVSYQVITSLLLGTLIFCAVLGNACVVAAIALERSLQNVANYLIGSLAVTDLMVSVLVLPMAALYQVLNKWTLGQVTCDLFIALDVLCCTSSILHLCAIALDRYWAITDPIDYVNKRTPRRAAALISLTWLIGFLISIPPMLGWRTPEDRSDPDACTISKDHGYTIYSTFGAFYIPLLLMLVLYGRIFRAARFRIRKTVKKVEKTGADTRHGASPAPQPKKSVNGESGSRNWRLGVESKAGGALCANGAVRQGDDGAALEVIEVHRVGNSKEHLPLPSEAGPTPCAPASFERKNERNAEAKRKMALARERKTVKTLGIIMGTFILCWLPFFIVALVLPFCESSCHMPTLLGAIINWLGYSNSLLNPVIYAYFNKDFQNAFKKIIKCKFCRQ
Experimental: The methods employed in this study have been adapted from the scientific literature to maximize reliability and reproducibility. Reference standards were run as an integral part of each assay to ensure the validity of the results obtained. Assays were performed under conditions as described below. Where presented, IC50 values were determined by a non-linear, least squares regression analysis using the Data Analysis Toolbox (MDL Information Systems, San Leandro, Calif., USA). Where inhibition constants (Ki) are presented, the Ki values were calculated using the equation of Cheng and Prusoff (Cheng, Y., Prusoff, W. H., Biochem. Pharmacol. 22:3099-3108, 1973) using the observed IC50 of the tested compound, the concentration of radioligand employed in the assay, and historical values for the KD of the ligand. Where presented, the Hill coefficient (nu), defining the slope of the competitive binding curve, was calculated using the Data Analysis Toolbox.

[3] = test system: Monocrotaline model of pulmonary arterial hypertension; assay: Monocrotaline model of pulmonary arterial hypertension (PAH); type: in vivo, Sprague-Dawley rats
Experimental: Adult male Sprague-Dawley rats (287±4 g) were obtained from Charles River Laboratories (Raleigh, N.C.). Animals housed individually in a temperature/humidity controlled room with 12-hour light/dark cycles had free access to water and food and were acclimated for one week prior to the study. All experimental protocols were approved by the University of Illinois at Chicago Care and Use Committee, and all experiments were conducted in accordance with the NIH guidelines for animal welfare.
Rats were randomly assigned to one of five experimental groups (n=10 per group). Rats in groups 1 and 2 served as healthy controls; the remaining rats were injected subcutaneously on Day 0 with 60 mg/kg body weight monocrotaline, the toxic alkaloid of C. spectabilis (dissolved in DMSO at a concentration of 60 mg/mL, Sigma Aldrich, St. Louis, Mo.). On days 1-21, rats were dosed via oral gavage (2 mL/kg) with vehicle (PBS), or ICI-735 at 1 mg/kg or 10 mg/kg. Rats were weighed daily, and the dosages were adjusted appropriately. […]
After the lungs were harvested, they were instilled with 10% neutral buffered formalin and immersed in the same fixative. The left and right caudal lung lobes were trimmed to produce six transverse samples per rat and these samples were routinely processed and embedded in paraffin blocks. Sections (approximately 5 μm thick) were stained with Verhoeff's elastin/eosin stain and examined by light microscopy, Histopathological findings were classified as: 1-alveolar inflammation and septal remodeling, 2-perivascular inflammation and edema, 3-perivascular fibrosis, and 4-arteriolar medial hypertrophy. The findings were graded by a pathologist without knowledge of treatment group assignment as 0 (not present), 1 (minimal), 2 (mild), 3 (moderate), or 4 (marked).
The distribution of each finding, if present was classified as multifocal or diffuse. The degree of muscularization of small peripheral pulmonary arteries was assessed by examination of sections immunohistochemically reacted with an anti-alpha-smooth muscle actin antibody (rabbit polyclonal ab5694 diluted 1:100, Abeam, Cambridge, Mass.). […]

[4] = MCT + 1 mg/kg ICI-735, 21 days, n = 10
[5] = MCT + 10 mg/kg ICI-735, 21 days, n = 10
[6] = MCT rats, daily oral 10 mg/kg for 21 days, p<0.05
[7] = SI + 10 mg/kg ICI-735, 21 days, n = 10

With `NCC(=O)NCCN1CCN(CCCN2c3ccccc3Sc3ccc(C(F)(F)F)cc32)CC1` [ICI-735] the Lung resistance ([1]; A. fumigatus insult, day 29) was 8.5 cm H2O/ml/s, the “decreasing lung resistance compared with dexamethasone” value [1] was “at least as effective as dexamethasone” and the inhibition at 0.1 µM ([2]; 0.1 μM) was 14%. The inhibition at 10 µM ([2]; 10 μM) was 89%, the “physical or behavioral drug-related toxicity, daily clinical evaluation” value ([3]; 1 or 10 mg/kg oral, 21 days) was “no evidence” and the “Incidence: Alveolar inflammation/septal remodeling, severity score 1” value [3, 4] was 3. The “Incidence: Alveolar inflammation/septal remodeling, severity score 2” value [3, 4] was 4, the “Incidence: Alveolar inflammation/septal remodeling, severity score 3” value [3, 4] was 1 and the “Incidence: Alveolar inflammation/septal remodeling, severity score 4” value [3, 4] was 2. The “Incidence: Arteriolar medial hypertrophy, severity score 1” value [3, 4] was 1, the “Incidence: Arteriolar medial hypertrophy, severity score 2” value [3, 4] was 6 and the “Incidence: Arteriolar medial hypertrophy, severity score 3” value [3, 4] was 3. The “Incidence: Perivascular flbrosis, severity score 0” value [3, 4] was 2, the “Incidence: Perivascular flbrosis, severity score 1” value [3, 4] was 5 and the “Incidence: Perivascular flbrosis, severity score 2” value [3, 4] was 3. For the same compound, the “Incidence: Perivascular inflammation/edema, severity score 1” value [3, 4] was 4, the “Incidence: Perivascular inflammation/edema, severity score 2” value [3, 4] was 5 and the “Incidence: Perivascular inflammation/edema, severity score 3” value [3, 4] was 1. The “Incidence: Alveolar inflammation/septal remodeling, severity score 1” value [3, 5] was 6, the “Incidence: Alveolar inflammation/septal remodeling, severity score 2” value [3, 5] was 3 and the “Incidence: Alveolar inflammation/septal remodeling, severity score 3” value [3, 5] was 1. For the same compound, the “Incidence: Arteriolar medial hypertrophy, severity score 0” value [3, 5] was 3, the “Incidence: Arteriolar medial hypertrophy, severity score 1” value [3, 5] was 5 and the “Incidence: Arteriolar medial hypertrophy, severity score 2” value [3, 5] was 2. The “Incidence: Perivascular flbrosis, severity score 0” value [3, 5] was 7, the “Incidence: Perivascular flbrosis, severity score 1” value [3, 5] was 3 and the “Incidence: Perivascular inflammation/edema, severity score 1” value [3, 5] was 8. For the same compound, the “Incidence: Perivascular inflammation/edema, severity score 2” value [3, 5] was 2, the “effects of MCT on PAP, RVSP and RV/BW” value ([3]; MCT rats, 1 mg/kg) was “did not attenuate” and the “incidences and severities of perivascular fibrosis and arteriolar medial hypertrophy” value ([3]; MCT rats, 10 mg/kg) was “marked decrease”. For the same compound, the “severities of alveolar inflammation and septal remodeling, and perivascular inflammation and edema” value ([3]; MCT rats, 10 mg/kg, compared to MCT/vehicle) was “clearly diminished”, the “reduction of MCT-induced elevation of PAP” value [3, 6] was 75% and the “reduction of MCT-induced elevation of RV/BW” value [3, 6] was 81%. For the same compound, the “reduction of MCT-induced elevation of RVSP” value [3, 6] was 78%, the “degree of muscularization of pulmonary arterioles compared with SI/vehicle controls” value ([3]; MCT rats, high-dose) was “no significant differences” and the “Incidence: Alveolar inflammation/septal remodeling, severity score 0” value [3, 7] was 1. For the same compound, the “Incidence: Alveolar inflammation/septal remodeling, severity score 1” value [3, 7] was 9, the “Incidence: Arteriolar medial hypertrophy, severity score 0” value [3, 7] was 10 and the “Incidence: Perivascular flbrosis, severity score 0” value [3, 7] was 10. For the same compound, the “Incidence: Perivascular inflammation/edema, severity score 0” value [3, 7] was 4, the “Incidence: Perivascular inflammation/edema, severity score 1” value [3, 7] was 5 and the “Incidence: Perivascular inflammation/edema, severity score 2” value [3, 7] was 1. For the same compound, the “changes in PAP, RVSP or RV/BW compared with vehicle controls” value ([3]; SI rats, 10 mg/kg) was “no changes”, the “Mean arterial pressure (MAP) compared with controls” value ([3]; all ICI-735-treated groups) was “unmodified” and the “heart rate (HR) compared with controls” value ([3]; all ICI-735-treated groups) was “unmodified”.
